Data reported in US20240009166A1, “USE OF ZANAMIVIR IN PREPARATION OF DRUG FOR TREATING OR PREVENTING PREECLAMPSIA” (Shenzhen Evergreen Therapeutics Co., Ltd., priority 2020, published 2024).
Entries after “also recorded” stand apart in the source; their conditions may differ.

Columns and labels:
Format in all cases: in vivo, CD-1 mice
[1] = tested on: L-NAME-induced pre-eclampsia animal model; experiment: Blood pressure on day 12 of gestation in L-NAME-induced pre-eclampsia model; details: days 1-18 of pregnancy, vs pregnancy model group
Protocol: (§1) Pregnant CD-1 mice (age 8-10 weeks) were randomly divided into control and pre-eclampsia model groups. On days 7-16 of the gestational cycle, the model group mice were induced with preeclampsia by subcutaneous injection of 50 mg/kg of N-nitro-L-arginine methyl ester (L-NAME) daily. For the control group, an equal volume of the solvent was injected subcutaneously. [table] In animal models of L-NAME-induced pre-eclampsia, symptoms of hypertension appear two days after the first administration of L-NAME and persist until at least five days after the first administration of L-NAME, according to the literature. The appearance of proteinuric symptoms was relatively late. Therefore, in this experiment, we focused on monitoring the blood pressure of […] on day 12 of gestation (i.e., five days after the first administration of L-NAME), as well as collecting 24-hour urine on day 17-18 of gestation and measuring the level of total protein. Also, we recorded the number of pups produced by each group of pregnant rats.

[2] = tested on: L-NAME-induced pre-eclampsia animal model; experiment: 24-hour urinary total protein on days 17-18 of gestation in L-NAME-induced pre-eclampsia model; details: for L-NAME-induced 24-hour urinary protein elevation: vs pregnancy model group
Protocol: as §1

[3] = tested on: L-NAME-induced pre-eclampsia animal model; experiment: Number of pups (litter size) in L-NAME-induced pre-eclampsia model
Protocol: as §1

[4] = 90 mg/kg tail vein injection daily
[5] = 120 mg/kg tail vein injection daily

CC(=O)N[C@H]1[C@H]([C@H](O)[C@H](O)CO)OC(C(=O)O)=C[C@@H]1N=C(N)N [zanamivir, 5-acetamido-4-[(aminoiminomethyl)-amino]-2,6-hydro-3,4,5-trideoxy-D-propanetriolyl-D-galactos-2-enolonic acid]
blood pressure [1, 4]: did not significantly change | L-NAME-induced increase in diastolic blood pressure [1, 5]: significantly reduced | L-NAME-induced increase in mean arterial pressure [1, 5]: significantly reduced | L-NAME-induced increase in systolic blood pressure [1, 5]: significantly reduced | L-NAME-induced 24-hour urinary protein elevation [2, 4]: significantly reduced | L-NAME-induced 24-hour urinary protein elevation [2, 5]: significantly reduced | L-NAME-induced elevation of 24-hour urinary protein ([2]; FIG. 4 legend, dose not stated): significantly reduces | reduction of litter size caused by L-NAME ([3]; 90 mg/kg tail vein injection daily, vs pregnancy model group): significantly improved | reduction of litter size caused by L-NAME ([3]; 120 mg/kg tail vein injection daily, vs pregnancy model group): significantly improved; also recorded: returning to a level comparable to that of the pregnant control group | reduction of litter size caused by L-NAME ([3]; FIG. 5 legend, dose not stated): significantly improved
